In general, IC50 refers to the point on the concentration scale where inhibition reaches its midpoint. A low value points to higher potency.

In assay [1] the target is T1, Full length DGKζ (in-house protein M1-V929) (Homo sapiens, UniProt Q13574).
T1 construct: His (N); TEV site (N); made in house; host or cells: Sf9 insect cells (Bac-to-Bac baculovirus)
As to the kind of experiment: Biochemical DGK IC50 assay (ADP-Glo, lipid micelle substrate), DGKζ. The settings on record: 1 hour preincubation, 1 hour reaction, room temperature. The essentials:
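Full-length human DGKζ (M1-V929, His-TEV tagged, Sf9 baculovirus-expressed) with DAG/PS lipid micelle substrate in octyl glucoside, at room temperature in 50 mM HEPES, 10 mM MgCl2, 0.01 mM CaCl2 buffer.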

The target of assay [2] is T2, Full length DGKα (D21-10BG, SignalChem) (Homo sapiens, UniProt P23743).
T2 construct: Full length DGKα (D21-10BG, SignalChem); purchased SignalChem D21-10BG
Put plainly: Biochemical DGK IC50 assay (ADP-Glo, lipid micelle substrate), DGKα. The settings on record: 1 hour preincubation, 1 hour reaction, room temperature. The essentials:
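Full-length human DGKα with DAG/PS lipid micelle substrate (in octyl glucoside buffer), reacted 1 h at room temperature in 50 mM HEPES, 10 mM MgCl2, 0.01 mM CaCl2, 0.1 mM Na3VO4, 0.01% BSA, 0.005% Tween-20. ADP formed read by ADP-Glo luminescence; IC50 from inhibition across increasing compound concentrations.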

SMILES strings stand for the structures. Bounds are passed on as bounds.

T1 sequence (Q13574 1-929 isoform Q13574-4): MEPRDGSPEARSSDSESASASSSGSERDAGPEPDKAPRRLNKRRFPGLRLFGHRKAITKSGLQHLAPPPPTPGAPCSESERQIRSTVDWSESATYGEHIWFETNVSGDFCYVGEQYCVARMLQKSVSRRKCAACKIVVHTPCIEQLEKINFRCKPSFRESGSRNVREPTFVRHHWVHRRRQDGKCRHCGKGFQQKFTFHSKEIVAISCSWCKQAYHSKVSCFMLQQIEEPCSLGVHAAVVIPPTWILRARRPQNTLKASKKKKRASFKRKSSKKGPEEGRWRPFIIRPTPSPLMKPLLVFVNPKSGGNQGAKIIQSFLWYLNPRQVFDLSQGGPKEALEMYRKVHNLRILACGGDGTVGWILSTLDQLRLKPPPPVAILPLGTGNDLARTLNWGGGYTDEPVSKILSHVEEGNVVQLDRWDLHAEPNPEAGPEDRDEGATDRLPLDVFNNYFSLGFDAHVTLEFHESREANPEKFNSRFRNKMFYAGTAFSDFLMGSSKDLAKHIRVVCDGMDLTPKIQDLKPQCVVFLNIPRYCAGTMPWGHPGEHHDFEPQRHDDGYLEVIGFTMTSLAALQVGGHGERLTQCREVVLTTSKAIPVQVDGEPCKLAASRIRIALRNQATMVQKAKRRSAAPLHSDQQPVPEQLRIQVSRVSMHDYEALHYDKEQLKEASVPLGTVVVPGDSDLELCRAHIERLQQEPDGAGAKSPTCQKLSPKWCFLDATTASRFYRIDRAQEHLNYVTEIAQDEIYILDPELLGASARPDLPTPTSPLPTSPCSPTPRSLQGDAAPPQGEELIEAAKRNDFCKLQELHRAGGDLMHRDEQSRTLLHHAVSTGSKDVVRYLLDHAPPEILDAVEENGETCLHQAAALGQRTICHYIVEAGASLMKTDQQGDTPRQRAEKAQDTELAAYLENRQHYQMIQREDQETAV
T2 sequence (P23743 whole entry): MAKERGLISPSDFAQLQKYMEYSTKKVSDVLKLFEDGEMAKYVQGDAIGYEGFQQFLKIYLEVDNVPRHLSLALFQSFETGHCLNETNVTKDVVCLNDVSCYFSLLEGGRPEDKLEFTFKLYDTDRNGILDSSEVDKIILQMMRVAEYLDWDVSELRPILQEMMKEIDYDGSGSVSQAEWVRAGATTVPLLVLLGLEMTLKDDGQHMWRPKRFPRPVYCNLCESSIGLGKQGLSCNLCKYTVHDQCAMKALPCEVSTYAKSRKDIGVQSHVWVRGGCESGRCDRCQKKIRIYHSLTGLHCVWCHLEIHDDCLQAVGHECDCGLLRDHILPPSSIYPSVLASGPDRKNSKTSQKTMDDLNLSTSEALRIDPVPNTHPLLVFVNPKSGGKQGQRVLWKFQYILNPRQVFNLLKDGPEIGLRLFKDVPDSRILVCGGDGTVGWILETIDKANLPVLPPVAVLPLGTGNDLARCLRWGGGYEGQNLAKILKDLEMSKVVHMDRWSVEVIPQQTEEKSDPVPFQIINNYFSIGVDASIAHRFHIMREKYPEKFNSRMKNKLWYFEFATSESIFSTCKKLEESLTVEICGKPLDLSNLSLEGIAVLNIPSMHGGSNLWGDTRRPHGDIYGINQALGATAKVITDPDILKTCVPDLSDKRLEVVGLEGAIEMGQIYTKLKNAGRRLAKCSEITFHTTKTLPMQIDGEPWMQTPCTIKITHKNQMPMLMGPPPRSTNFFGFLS

In the case of `C=C(C)c1cc(C(C)N2C[C@H](C)N(c3nc(=O)n(C)c4c3nc(CC#N)n4CC)C[C@H]2C)ccc1F` (stereo partly drawn) [Compound A135, 2-(9-ethyl-6-((2S,5R)-4-(1-(4-fluoro-3-(prop-1-en-2-yl)phenyl)ethyl)-2,5-dimethylpiperazin-1-yl)-3-methyl-2-oxo-3,9-dihydro-2H-purin-8-yl)acetonitrile], the IC50 was 14 nM in assay [1] and > 150000 nM in assay [2].
The like results for `CCn1c(CC#N)nc2c(N3C[C@@H](C)N(C(C)c4cc(C(F)(F)F)ccn4)C[C@@H]3C)nc(=O)n(C)c21` (stereo partly drawn) [Compound A120, 2-(6-((2S,5R)-2,5-dimethyl-4-(1-(4-(trifluoromethyl)pyridin-2-yl)ethyl)piperazin-1-yl)-9-ethyl-3-methyl-2-oxo-3,9-dihydro-2H-purin-8-yl)acetonitrile] were, in that order, 1280 nM and > 150000 nM.
Regarding `CCn1c(CC#N)nc2c(N3C[C@@H](C)N(C(C)c4ccc5c(c4)C(=O)N(C)C5=O)C[C@@H]3C)nc(=O)n(C)c21` (stereo partly drawn) [Compound A83, 2-(6-((2S,5R)-2,5-dimethyl-4-(1-(2-methyl-1,3-dioxoisoindolin-5-yl)ethyl)piperazin-1-yl)-9-ethyl-3-methyl-2-oxo-3,9-dihydro-2H-purin-8-yl)acetonitrile], the IC50 was 40 nM in assay [1] and > 150000 nM in assay [2].
Turning to `CCn1c(CC#N)nc2c(N3C[C@@H](C)N(C(C)c4cc(F)c5c(c4)OC(C)(C)O5)C[C@@H]3C)nc(=O)n(C)c21` (single isomer, unassigned) [Compound A173a], the values for the half-inhibitory concentration (IC50) in assay [1] and in assay [2] were 12 nM and 51000 nM, respectively.
The like results for `CCn1c(CC#N)nc2c(N3C[C@@H](C)N(C(C)c4ccc5c(n4)OC(C)(C)CO5)C[C@@H]3C)nc(=O)n(C)c21` (stereo partly drawn) [Compound A74, 2-(6-((2S,5R)-4-(1-(3,3-dimethyl-2,3-dihydro-[1,4]dioxino[2,3-b]pyridin-6-yl)ethyl)-2,5-dimethylpiperazin-1-yl)-9-ethyl-3-methyl-2-oxo-3,9-dihydro-2H-purin-8-yl)acetonitrile] were, in that order, 45 nM and > 150000 nM.
The matching figures for `CCn1c(CC#N)nc2c(N3C[C@@H](C)N(C(C)c4cccc(C(F)(F)F)c4)C[C@@H]3C)nc(=O)n(C)c21` (single isomer, unassigned) [Compound A42b]: 285 nM and 118000 nM.
The matching figures for `CCn1c(CC#N)nc2c(N3C[C@@H](C)N(C(C)c4ccc5c(c4)OC(C)(C)CO5)C[C@@H]3C)nc(=O)n(C)c21` (single isomer, unassigned) [Compound A60a]: 3.3 nM and 72500 nM.
On to `CCn1c(CC#N)nc2c(N3C[C@@H](C)N(C(C)c4nc5c(cc4F)OCC(C)(C)O5)C[C@@H]3C)nc(=O)n(C)c21` (mixture of isomers) [Compound A161, 2-(9-ethyl-6-((2S,5R)-4-(1-(7-fluoro-3,3-dimethyl-2,3-dihydro-[1,4]dioxino[2,3-b]pyridin-6-yl)ethyl)-2,5-dimethylpiperazin-1-yl)-3-methyl-2-oxo-3,9-dihydro-2H-purin-8-yl)acetonitrile], for which the IC50 in assay [1] was 81 nM; in assay [2], > 150000 nM.
The like results for `CC[C@H]1CN(C(C)c2ccc(C(F)(F)F)cc2)[C@H](CC)CN1c1nc(=O)n(C)c2c1nc(CC#N)n2C` (single isomer, unassigned) [Compound A149a] were, in that order, 37 nM and 1620 nM.
Turning to `CC(c1ccc2c(c1)OCCO2)N1C[C@H](C)N(c2c(F)c(=O)n(C)c3c2nc(CC#N)n3C)C[C@H]1C` (single isomer, unassigned) [Compound A18a], the IC50 in assay [1] was found to be 19 nM; in assay [2], 23600 nM.
The like results for `CC(c1ccc(F)cc1C(F)(F)F)N1C[C@H](C)N(c2cc(=O)n(C)c3sc(CC#N)nc23)C[C@H]1C` (stereo partly drawn) [Compound A195, 2-(7-((2S,5R)-4-(1-(4-fluoro-2-(trifluoromethyl)phenyl)ethyl)-2,5-dimethylpiperazin-1-yl)-4-methyl-5-oxo-4,5-dihydrothiazolo[5,4-b]pyridin-2-yl)acetonitrile] were, in that order, 25 nM and > 150000 nM.
Take `CCn1c(CC#N)nc2c(N3C[C@@H](C)N(C(C)c4cc(F)cc(C(F)F)c4)C[C@@H]3C)nc(=O)n(C)c21` (stereo partly drawn) [Compound A38, 2-(6-((2S,5R)-4-(1-(3-(difluoromethyl)-5-fluorophenyl)ethyl)-2,5-dimethylpiperazin-1-yl)-9-ethyl-3-methyl-2-oxo-3,9-dihydro-2H-purin-8-yl)acetonitrile]: the IC50 turned out to be 165 nM in assay [1] and 143000 nM in assay [2].
The like results for `CCn1c(CC#N)nc2c(N3C[C@@H](C)N(C(C)c4cccc(C(C)C)c4)C[C@@H]3C)nc(=O)n(C)c21` (mixture of isomers) [Compound A108, 2-(9-ethyl-6-((2S,5R)-4-(1-(3-isopropylphenyl)ethyl)-2,5-dimethylpiperazin-1-yl)-3-methyl-2-oxo-3,9-dihydro-2H-purin-8-yl)acetonitrile] were, in that order, 32 nM and 95100 nM.
Turning to `Cc1ccc(C(C)N2C[C@H](C)N(c3cc(=O)n(C)c4c3nc(CC#N)n4C)C[C@H]2C)cc1` (single isomer, unassigned) [Compound A5b], the half-inhibitory concentration (IC50) in assay [1] is 88 nM; in assay [2], 616 nM.
The like results for `Cc1ccc(C(C)N2C[C@H](C)N(c3cc(=O)n(C)c4c3nc(CC#N)n4C)C[C@H]2C)c(C(F)(F)F)c1` (single isomer, unassigned) [Compound A8b] were, in that order, 97 nM and > 150000 nM.
The matching figures for `CCn1c(CC#N)nc2c(N3C[C@@H](C)N(C(C)c4ccc5c(n4)C(F)(F)CCO5)C[C@@H]3C)nc(=O)n(C)c21` (stereo partly drawn) [Compound A102, 2-(6-((2S,5R)-4-(1-(4,4-difluoro-3,4-dihydro-2H-pyrano[3,2-b]pyridin-6-yl)ethyl)-2,5-dimethylpiperazin-1-yl)-9-ethyl-3-methyl-2-oxo-3,9-dihydro-2H-purin-8-yl)acetonitrile]: 37 nM and > 150000 nM.
`CC(c1ccc2c(c1)OC(C)(C)CO2)N1C[C@H](C)N(c2c(F)c(=O)n(C)c3c2nc(CC#N)n3C)C[C@H]1C` (single isomer, unassigned) [Compound A19b]: the concentration for half-maximal inhibition (IC50) in assay [1] was found to be 82 nM; in assay [2] it was 6940 nM.
In the case of `COC[C@H]1CN(C(C)c2ccc3ncc(C)nc3c2)[C@H](C)CN1c1nc(=O)n(C)c2c1nc(CC#N)n2C` (single isomer, unassigned) [Compound A13a], the IC50 in assay [1] was 5060 nM; in assay [2] it was > 150000 nM.
The matching figures for `CCn1c(CC#N)nc2c(N3C[C@@H](C)N(C(C)c4ccc(C(F)(F)F)cc4)C[C@@H]3C)nc(=O)n(C)c21` (stereo partly drawn) [Compound A40, 2-(6-((2S,5R)-2,5-dimethyl-4-(1-(4-(trifluoromethyl)phenyl)ethyl)piperazin-1-yl)-9-ethyl-3-methyl-2-oxo-3,9-dihydro-2H-purin-8-yl)acetonitrile]: 398 nM and 25900 nM.
`CCn1c(CC#N)nc2c(N3C[C@@H](C)N(C(C)c4ccc5c(c4)OC(C)(C)O5)C[C@@H]3C)nc(=O)n(C)c21` (mixture of isomers) [Compound A85, 2-(6-((2S,5R)-4-(1-(2,2-dimethylbenzo[d][1,3]dioxol-5-yl)ethyl)-2,5-dimethylpiperazin-1-yl)-9-ethyl-3-methyl-2-oxo-3,9-dihydro-2H-purin-8-yl)acetonitrile]: the IC50 in assay [1] was found to be 25 nM; in assay [2] it was 103000 nM.

For the origin of these results see patent publication US20260125378A2, “Heterocyclic Compounds” (BeOne Medicines I GmbH, priority 2023, published 2026).
